Measured values taken from patent US11566007B2, “Ras inhibitors” (Revolution Medicines, Inc., priority 2019, dated 2023).
Like-named read-outs stand apart in the source and are kept apart here.

What was measured:
[1] = test system: NCI-H358 cells (K-Ras G12C); experiment: Potency assay: pERK in NCI-H358 cells; format: cell-based, human; conditions: H358 KRAS G12C, read-out: pERK EC50
Description: The purpose of this assay is to measure the ability of test compounds to inhibit K-Ras in cells. […] This procedure measures a decrease in cellular pERK in response to test compounds.
NCI-H358 cells were grown and maintained using media and procedures recommended by the ATCC. On the day prior to compound addition, cells were plated in 384-well cell culture plates (40 μl/well) and grown overnight in a 37° C., 5% CO2 incubator. Test compounds were prepared in 10, 3-fold dilutions in DMSO, with a high concentration of 10 mM. On the day of assay, 40 nL of test compound was added to each well of cell culture plate using an Echo550 liquid handler (LabCyte®). Concentrations of test compound were tested in duplicate. After compound addition, cells were incubated 4 hours at 37° C., 5% CO2. Following incubation, culture medium was removed and cells were washed once with phosphate buffered saline.
In some experiments, cellular pERK level was determined using the AlphaLISA SureFire Ultra p-ERK1/2 Assay Kit (PerkinElmer). Cells were lysed in 25 μL lysis buffer, with shaking at 600 RPM at room temperature. […] After a 2-hour incubation in the dark, 5 μL donor mix was added, plate was sealed, and incubated 2 hours at room temperature. Signal was read on an Envision plate reader (PerkinElmer) using standard AlphaLISA settings. Analysis of raw data was carried out in Excel (Microsoft) and Prism (GraphPad). Signal was plotted vs. the decadal logarithm of compound concentration, and IC50 was determined by fitting a 4-parameter sigmoidal concentration response model.
In other experiments, cellular pERK was determined by In-Cell Western. […] Fixed cells were washed 4 times for 5 minutes with TBS containing 0.1% Triton X-100 (TBST) and then blocked with 100 μL Odyssey blocking buffer (LI-COR) for 60 minutes at room temperature. […] Cells were washed 4 times for 5 minutes with TBST. Secondary antibody (IR-800CW rabbit, LI-COR, diluted 1:800) and DNA stain DRAQS (LI-COR, diluted 1:2000) were added and incubated 1-2 hours at room temperature. Cells were washed 4 times for 5 minutes with TBST. Plates were scanned on a Li-COR Odyssey CLx Imager. Analysis of raw data was carried out in Excel (Microsoft) and Prism (Graph Pad). Signal was plotted vs. the decadal logarithm of compound concentration, and IC50 was determined by fitting a 4-parameter sigmoidal concentration response model.

[2] = test system: NCI-H358 (K-Ras G12C); experiment: CellTiter-Glo cell viability assay, NCI-H358; format: cell-based, human; conditions: NCI-H358, 5-day treatment, class symbols, read-out: Additional H358 Cell Viability assay data (K-Ras G12C, IC50)
Description: Note—The following protocol describes a procedure for monitoring cell viability of K-Ras mutant cancer cell lines in response to a compound of the invention. Other RAS isoforms may be employed, though the number of cells to be seeded will vary based on cell line used.
Test compounds (132.5 nL) were directly dispensed into the assay plates containing cells. […] On day 5, assay plates and their contents were equilibrated to room temperature for approximately 30 minutes. […] Luminescence was measured using the PerkinElmer Enspire. Data were normalized by the following: (Sample signal/Avg. DMSO)*100. The data were fit using a four-parameter logistic fit.

Row | SMILES | EC50 [1] | EC50 ([1]; Homo sapiens, NCI-H358) | IC50 ([2]; Homo sapiens, NCI-H358, 120 h) | IC50 [2]
1 | C=CC(=O)N1CC[C@H](C(=O)N(C)[C@H](C(=O)N[C@H]2Cc3cc(O)cc(c3)-c3ccc4c(c3)c(c(-c3cccnc3[C@H](C)OC)n4CC)CC(C)(C)COC(=O)[C@@H]3CCCN(N3)C2=O)C(C)C)C1 (atropisomer, axis not shown; (M)) [Example A75, (2S)-N-[(8S,14S,20M)-22-ethyl-4-hydroxy-21-{2-[(1S)-1-methoxyethyl]pyridin-3-yl}-18,18-dimethyl-9,15-dioxo-16-oxa-10,22,28-triazapentacyclo[18.5.2.1^2,^6.1^10,^14.0^23,^27]nonacosa-1(26),2,4,6(29),20,23(27),24-heptaen-8-yl]-3-methyl-2-{N-methyl-1-[(3S)-1-(prop-2-enoyl)pyrrolidin-3-yl]formamido}butanamide] |  | < 5 µM | 10 to 100 nM | < 10 nM
2 | C=CC(=O)N1CC[C@H](C(=O)N(C)[C@H](C(=O)N[C@H]2Cc3cc(O)cc(c3)-c3ccc4c(c3)c(c(-c3ccc(CN5CC[C@@H](O)C5)cc3)n4CC)CC(C)(C)COC(=O)[C@@H]3CCCN(N3)C2=O)C(C)C)C1 [Example A1] |  | < 5 µM | 100 to 1000 nM | 
3 | C=CC(=O)N1CC[C@H](C(=O)N(C)[C@H](C(=O)N[C@H]2Cc3cc(O)cc(c3)-c3ccc4c(c3)c(c(-c3ccccc3CCOC)n4CC)CC(C)(C)COC(=O)[C@@H]3CCCN(N3)C2=O)C2CCOCC2)C1 [Example A6] |  | < 5 µM | 100 to 1000 nM | 
4 | C=CC(=O)N1CC[C@H](C(=O)N(C)[C@H](C(=O)N[C@H]2Cc3cc(OC(=O)CCN4CCN(C)CC4)cc(c3)-c3ccc4c(c3)c(c(-c3ccccc3CCOC)n4CC)CC(C)(C)COC(=O)[C@@H]3CCCN(N3)C2=O)C(C)C)C1 [Example A7] |  | < 5 µM | 100 to 1000 nM | 
5 | C=CC(=O)N1CC[C@H](C(=O)N(C)[C@H](C(=O)N[C@H]2Cc3cc(cc(O)c3F)-c3ccc4c(c3)c(c(-c3ccccc3CCOC)n4CC)CC(C)(C)COC(=O)[C@@H]3CCCN(N3)C2=O)C(C)C)C1 [Example A9] |  | < 5 µM | 100 to 1000 nM | 

Second part, led by results:

Row | EC50 [1] | EC50 ([1]; Homo sapiens, NCI-H358) | IC50 ([2]; Homo sapiens, NCI-H358, 120 h) | SMILES | IC50 [2]
6 | < 5 µM |  |  | CC#CC(=O)N1CC[C@H](C(=O)N(C)[C@@H](C(=O)N[C@H]2Cc3cc(O)cc(c3)-c3ccc4c(c3)c(c(-c3cccnc3[C@H](C)OC)n4CC)CC(C)(C)COC(=O)[C@@H]3CCCN(N3)C2=O)C(C)C)C1 (atropisomer, axis not shown) [Example A199] | 100 to 1000 nM
7 |  | < 5 µM | > 1000 nM | C=CC(=O)N1CC[C@H](C(=O)N(C)[C@H](C(=O)N[C@H]2Cc3cc(N)cc(c3)-c3ccc4c(c3)c(c(-c3ccccc3CCOC)n4CC)CC(C)(C)COC(=O)[C@@H]3CCCN(N3)C2=O)C(C)C)C1 [Example A2, (2S)-N-[(8S,14S)-4-amino-22-ethyl-21-[2-(2-methoxyethyl)phenyl]-18,18-dimethyl-9,15-dioxo-16-oxa-10,22,28-triazapentacyclo[18.5.2.1^2,^6.1^10,^14.0^23,^27]nonacosa-1(26),2,4,6(29),20,23(27),24-heptaen-8-yl]-3-methyl-2-{N-methyl-1-[(3S)-1-(prop-2-enoyl)pyrrolidin-3-yl]formamido}butanamide] | 
8 |  | < 5 µM | 100 to 1000 nM | C=CC(=O)N1CC[C@H](C(=O)N(C)[C@H](C(=O)N[C@H]2Cc3cc(O)cc(c3)-c3ccc4c(c3)c(c(-c3ccc(CN(C)C)cc3)n4CC)CC(C)(C)COC(=O)[C@@H]3CCCN(N3)C2=O)C(C)C)C1 [Example A3] | 
9 |  | < 5 µM | 10 to 100 nM | C=CC(=O)N1CC[C@H](C(=O)N(C)[C@H](C(=O)N[C@H]2Cc3cc(O)cc(c3)-c3ccc4c(c3)c(c(-c3ccccc3CN(C)C)n4CC)CC(C)(C)COC(=O)[C@@H]3CCCN(N3)C2=O)C(C)C)C1 [Example A5] | 
10 |  | < 5 µM | 100 to 1000 nM | C=CC(=O)N1CC[C@H](C(=O)N(C)[C@H](C(=O)N[C@H]2Cc3cc(OC(=O)CN)cc(c3)-c3ccc4c(c3)c(c(-c3ccccc3CCOC)n4CC)CC(C)(C)COC(=O)[C@@H]3CCCN(N3)C2=O)C(C)C)C1 [Example A8] | 
